Here are results for 4 sequences from patent US20230346912A1 (priority 2022, published 2023).

The test system of this test is spleen lymphocytes of B2 haplotype chickens infected with H9N2 AIV. It is filed as cell-based, chicken.
For the sequence AVKGIGTMV [Polypeptide P10], the “immunogenicity of individual peptide (IFN-γ ELISpot)” value (shortened to “immunogenicity of individual peptide”) is recorded as “considered immunogenic”.

Take DVSFQGRGV [Polypeptide P11]: the “immunogenicity of individual peptide” value is listed as “considered immunogenic”.

With MSRDWLMLI [Polypeptide P373], the “immunogenicity of individual peptide” value was “considered immunogenic”.

Take WIIRNWETV [Polypeptide P257]: the “immunogenicity of individual peptide” value is “considered immunogenic”.
